Test results from ChEMBL document CHEMBL5050837, “Rictor-targeted therapy in the management of brain metastases” (2021).
Active and inactive are the calls of the source. The rule behind the calls is not given here.

What was measured:
HCC827 [1] = experiment: Induction of apoptosis in RICTOR-upregulated human HCC827 cells; type: functional, cell-based
HCC827 [2] = experiment: Induction of apoptosis in erlotinib-resistant human HCC827 cells with RICTOR-knockdown; type: functional, cell-based
PC-9 [3] = experiment: Antiproliferative activity against doxycycline-induced RICTOR-knockdown human PC-9 cells; type: functional, cell-based
HCC827 [4] = experiment: Antiproliferative activity against doxycycline-induced RICTOR-knockdown human HCC827 cells; type: functional, cell-based
NCI-H1703 [5] = experiment: Inhibition of RICTOR-amplified human NCI-H1703 cells invasion; type: functional, cell-based
NCI-H23 [6] = experiment: Inhibition of RICTOR-amplified human NCI-H23 cells invasion; type: functional, cell-based
NCI-H1703 [7] = experiment: Inhibition of RICTOR-amplified human NCI-H1703 cells migration; type: functional, cell-based
NCI-H23 [8] = experiment: Inhibition of RICTOR-amplified human NCI-H23 cells migration; type: functional, cell-based
PC-9 [9] = experiment: Down-regulation of Axl in RICTOR-knockdown human PC-9 cells assessed as half-life of Axl; type: functional, cell-based
HCC827 [10] = experiment: Antitumor activity against erlotinib-resistant doxycycline-induced RICTOR-knockdown human HCC827 cells xenografted in mouse assessed as decrease in Axl expression; type: functional, cell-based
HCC827 [11] = experiment: Antitumor activity against erlotinib-resistant doxycycline-induced RICTOR-knockdown human HCC827 cells xenografted in mouse assessed as inhibition of tumor growth; type: functional, cell-based
HCC827 [12] = experiment: Antiproliferative activity against erlotinib-resistant doxycycline-induced RICTOR-knockdown human HCC827 cells assessed as fold decrease in compound IC50; type: functional
NCI-H23 [13] = experiment: Antitumor activity against RICTOR-knockdown human NCI-H23 cells xenografted in mouse assessed as inhibition of tumor growth; type: functional
HCC827 [14] = experiment: Inhibition of RICTOR-upregulated human HCC827 cell invasion; type: functional, cell-based
HCC827 [15] = experiment: Inhibition of RICTOR-upregulated human HCC827 cell migration; type: functional, cell-based

Row | SMILES | Activity (PC-9 [3]) | Activity (HCC827 [4]) | inhibition (NCI-H1703 [5]) | inhibition (NCI-H23 [6]) | inhibition (NCI-H1703 [7]) | inhibition (NCI-H23 [8]) | other results
1 | C=CC(=O)Nc1cc(Nc2nccc(-c3cn(C)c4ccccc34)n2)c(OC)cc1N(C)CCN(C)C | Active |  |  |  |  |  | Activity (HCC827 [1]): inactive; Activity (HCC827 [2]): Active
2 | CN(C)C/C=C/C(=O)Nc1cc2c(Nc3ccc(F)c(Cl)c3)ncnc2cc1O[C@H]1CCOC1 |  | Active |  |  |  |  | 
3 | CNC(=O)c1cccc(-c2ccc3c(N4CCOC[C@@H]4C)nc(N4CCOC[C@@H]4C)nc3n2)c1 |  |  | Active | Active | Active | Active | 
4 | C[C@@H]1C[C@@H]([C@H](O)CC2CC(=O)NC(=O)C2)C(=O)[C@@H](C)C1 |  |  |  |  |  |  | T1/2 (PC-9 [9]): 3.2 h
5 | C#Cc1cccc(Nc2ncnc3cc(OCCOC)c(OCCOC)cc23)c1 [ERLOTINIB] | Active | Active |  |  |  |  | Activity (HCC827 [10]): Active; Activity (HCC827 [11]): Active; fold change (FC) (HCC827 [12]): 1000
6 | CC(C)n1nc(-c2ccc3oc(N)nc3c2)c2c(N)ncnc21 [SAPANISERTIB] |  |  | Active | Active | Active | Active | TGI (NCI-H23 [13]): 75%; inhibition (HCC827 [14]): Active; inhibition (HCC827 [15]): Active
